Test results published in ChEMBL document CHEMBL3880439, “Cyclopentanone and cyclopentanone derivatives as potent activators of HSF-1” (2004).

Columns and labels:
Respirovirus muris = assay: Antiviral activity against Sendai virus infected in African green monkey 37RC cells assessed as inhibition of viral replication at 24 hrs by haemagglutinin titration method; format: functional; conditions: read-out: ID50 (the source's name)
[1] = Cytotoxicity against African green monkey 37RC cells by microscopic method; format: cell-based; conditions: chlorocebus aethiops
[2] = target: Heat shock factor protein (Homo sapiens) (UniProt Q00613+Q03933+Q9ULV5); assay: Activation of HSF in human HeLa cell clone 13B after 8 hrs by luciferase reporter gene assay; format: cell-based
[3] = Cytotoxicity against human HeLa cells incubated for 8 hrs measured after 6 hrs by Alamar blue assay; format: cell-based; conditions: read-out: LC50
[4] = Cytotoxicity against African green monkey 37RC cells incubated for 8 hrs measured after 6 hrs by neutral red assay; format: cell-based; conditions: chlorocebus aethiops, read-out: LC50
[5] = Toxicity in iv dosed anaesthetized rat assessed as decrease in blood pressure administered as infusion; format: organism-based; conditions: in vivo

| Compound | IC50 (Respirovirus muris) | TD100 [1] | AC200 [2] | CC50 at 8 h [3] | CC50 at 8 h [4] | Activity [5] |
| --- | --- | --- | --- | --- | --- | --- |
| CC(C)(C)OC(=O)NC1C=CC(=O)C1 (configuration not stated) | 20 µM | 100 µM | 51 µM | > 800 µM |  |  |
| COC(=O)[C@H](CSC1CC(=O)/C(=C/C(C)C)C1C)NC(=O)OC(C)(C)C (some centres not stated) |  |  | 18 µM | > 800 µM |  |  |
| CC(C)(C)OC(=O)N[C@@H](CS[C@@H]1CC(=O)/C(=C/c2ccccc2)[C@H]1NC(=O)OC(C)(C)C)C(=O)O |  |  | < 6.2 µM |  | 25 µM |  |
| CCOC(=O)N(C(=O)OC(C)(C)C)C1C=CC(=O)C1 (configuration not stated) |  |  | 18 µM |  | 233 µM |  |
| CC(C)/C=C1/C(=O)C=CC1C (configuration not stated) |  |  | 13 µM | > 800 µM |  |  |
| CC(C)/C=C1\C(=O)C=CC1NC(=O)c1ccccc1 (configuration not stated) | 0.3 µM | 10 µM | < 6.2 µM | 50 µM | 4 µM |  |
| O=C1C=CC(NC(=O)CCl)C1 (configuration not stated) |  |  | < 6.2 µM |  | 79 µM |  |
| Cc1cc(C)c(/C=C2/C(=O)C=C[C@@H]2NC(=O)OC(C)(C)C)c(C)c1 |  |  | < 6.2 µM |  | 25 µM |  |
| Cc1ccc(S(=O)(=O)NC(=O)OC2C=CC(=O)C2)cc1 (configuration not stated) |  |  | 13 µM | > 800 µM |  |  |
| COC(=O)[C@H](CS[C@@H]1CC(=O)C[C@H]1NC(=O)Oc1ccccc1)NC(=O)OC(C)(C)C |  |  | 13 µM |  | 76 µM |  |
| C[C@H]1C=CC(=O)/C1=C/c1ccc([N+](=O)[O-])cc1 |  |  | 2 µM | > 800 µM |  |  |
| CC(C)(C)OC(=O)NC1C=CC(=O)/C1=C/c1ccccc1 (configuration not stated) | 0.6 µM | 10 µM | 1.8 µM | > 800 µM | 33 µM |  |
| O=C1C[C@@H](NC(=O)Oc2ccccc2)[C@H](Sc2ccc3ccccc3c2)C1 |  |  | 26 µM |  | 113 µM |  |
| O=C1C[C@H](Sc2ccc3ccccc3c2)[C@H](NC(=O)Oc2ccccc2)C1 |  |  | 28 µM |  | 183 µM |  |
| CC(C)/C=C1/C(=O)C=C[C@H]1NC(=O)OC(C)(C)C | 0.4 µM | 10 µM | 5 µM | > 800 µM | 4 µM |  |
| CCCCCC/C=C1/C(=O)C=CC1C (configuration not stated) |  |  | < 6.2 µM | 234 µM |  |  |
| CC(C)/C=C1/C(=O)C=C[C@@H]1NC(=O)OC(C)(C)C | 1 µM | 50 µM | 1.8 µM | > 800 µM | 4 µM |  |
| CCCCC1C=CC(=O)/C1=C/CC(C)C (configuration not stated) | 0.3 µM | 50 µM | 13 µM | 227 µM |  |  |
| CCCCC1C=CC(=O)/C1=C/C(C)C (configuration not stated) | 0.3 µM | 10 µM | 13 µM | 506 µM |  |  |
| CCCCC/C=C1/C(=O)C=CC1C (configuration not stated) |  |  | > 100 µM | > 800 µM |  |  |
| O=C1C=CC(Nc2ccccc2)C1 (configuration not stated) |  |  | 27 µM | > 800 µM |  |  |
| CC(C)(C)OC(=O)NC1C=CC(=O)/C1=C/c1ccc(Cl)cc1 (configuration not stated) | 0.6 µM | 10 µM | 2 µM | > 800 µM | 3.4 to 72 µM |  |
| O=C1C=CC(NC(=O)c2ccccc2)C1 (configuration not stated) | 20 µM | 100 µM | 51 µM | > 800 µM | 59 µM |  |
| CC1C=CC(=O)/C1=C/c1ccccc1 (configuration not stated) | 0.9 µM | 50 µM | 3 µM | 314 µM |  |  |
| CC(C)/C=C1/C(=O)C=CC1NC(=O)OC(C)(C)C (configuration not stated) | 1 µM | 50 µM | 2.8 µM | > 800 µM | 4 µM |  |
| CCOC(=O)NC1C=CC(=O)C1 (configuration not stated) |  |  | 49 µM |  | 104 µM |  |
| CCCCC[C@H](O)/C=C/[C@H]1C=CC(=O)[C@@H]1CCCCCCC(=O)O [PROSTAGLANDIN A1] |  |  |  |  |  | Toxic |
| CCCCC[C@H](O)/C=C/[C@H]1[C@H](O)CC(=O)[C@@H]1CCCCCCC(=O)O [ALPROSTADIL] |  |  |  |  |  | Toxic |
| O=C1C=CC(NC(=O)Oc2ccccc2)C1 (configuration not stated) |  |  | 10 µM |  | 74 µM |  |
| CCCCC1C=CC(=O)/C1=C/C1CC1 (configuration not stated) |  |  | 8 µM | 239 µM |  |  |
